The record followed here is ChEMBL document CHEMBL1782006, “Discovery of diphenylmethane analogs as anti-bovine diarrhea viral agents” (Bioorg Med Chem Lett, 2009).

The nature of series [1]: Selectivity index, ratio of CC50 for MDBK cells to EC50 for antiviral activity against BVDV1 Nose.
The test system of series [2] is Bovine viral diarrhea virus 1. The series can be described thus: Antiviral activity against BVDV1 Nose infected in MDBK cells assessed as inhibition of virus replication-induced cell destruction. It is filed as functional, organism-based. As to conditions: Bovine viral diarrhea virus isolates and strains.
The nature of series [3]: Cytotoxicity in MDBK cells assessed as reduction in cell viability. The format is cell-based, Bos taurus. The settings on record: cattle.

Where only a bound is given, the exact number is not on record here.

As usually defined, the EC50 is the midpoint of the concentration-response curve. Broadly, the CC50 is the concentration giving 50% cytotoxicity. Take `CCC(CC)(c1ccc(NCC(O)C(C)(C)C)c(C)c1)c1ccc(OC[C@@H](O)CO)c(C)c1` (stereo partly drawn): in series [1], the “Ratio CC50/EC50” value is reported as 1.72. Besides, the EC50 in series [2] was 25 µM. The CC50 in series [3] worked out at 43 µM.

On to `CCC(CC)(c1ccc(OCC(=O)C(C)(C)C)c(C)c1)c1ccc(N(CC(=O)C(C)(C)C)Cc2ccccc2)c(C)c1`, for which, in series [2], the EC50 was determined as 28 µM. Moreover, the CC50 in series [3] was more than 100 µM.

`CCC(CC)(c1ccc(O)c(C)c1)c1ccc(OCC(=O)C(C)(C)C)c(C)c1`: the EC50 in series [2] was determined as 8.6 µM. Also, in series [3], the cytotoxic concentration (CC50) is 5.23 µM.

Turning to `CCC(CC)(c1ccc(O)cc1)c1ccc(O)cc1`, in series [1], the “Ratio CC50/EC50” value stood at 3.9. Further, in series [2], the EC50 is 10 µM. Moreover, the CC50 in series [3] turned out to be 39 µM.

Turning to `Nc1ccc(C2(c3ccc(O)cc3)CCCCC2)cc1`, in series [2], the EC50 is more than 42 µM. Further, in series [3], the CC50 came out at 42 µM.

Turning to `Cc1cc(C(C)(C)c2ccc(OCC(=O)C(C)(C)C)c(C)c2)ccc1OCC(=O)C(C)(C)C`, the 50% effective concentration (EC50) in series [2] came to 12 µM. The 50% cytotoxic concentration (CC50) in series [3] was more than 100 µM.

For the compound `Cc1cc(C2(c3ccc(OCC(=O)C(C)(C)C)c(C)c3)CCC2)ccc1OCC(=O)C(C)(C)C`, the EC50 in series [2] was determined as 6.3 µM. Moreover, the CC50 in series [3] was more than 100 µM.

Consider `Cc1cc(C2(c3ccc(OCC(=O)C(C)(C)C)c(C)c3)CCCC2)ccc1OCC(=O)C(C)(C)C`, for which, in series [2], the EC50 came to 13 µM. In series [3], the CC50 was more than 100 µM.

With `Cc1cc([Si](C)(C)c2ccc(OCC(=O)C(C)(C)C)c(C)c2)ccc1OCC(=O)C(C)(C)C`, the EC50 in series [2] was found to be 12.8 µM. For the same compound, in series [3], the CC50 is more than 100 µM.

As for `CC[Si](CC)(c1ccc(OCC(=O)C(C)(C)C)c(C)c1)c1ccc(OCC(=O)C(C)(C)C)c(C)c1`, the EC50 in series [2] was 8.4 µM. Moreover, the CC50 in series [3] was more than 100 µM.

For `CC[Si](CC)(c1ccc(OCC(=O)C(C)(C)C)cc1)c1ccc(OCC(=O)C(C)(C)C)cc1`, the EC50 in series [2] is 6.2 µM. Moreover, in series [3], the CC50 was more than 100 µM.

For `CC[Si](CC)(c1ccc(O)cc1)c1ccc(OCC(=O)C(C)(C)C)cc1`, the “Ratio CC50/EC50” value in series [1] turned out to be 5.85. In series [2], the EC50 was 8 µM. For the same compound, the CC50 in series [3] was determined as 46.8 µM.

In the case of `CCC(CC)(c1ccc(NCC(=O)C(C)(C)C)c(C)c1)c1ccc(OCC(=O)C(C)(C)C)c(C)c1`, the “Ratio CC50/EC50” value in series [1] was found to be 9.21. Also, the EC50 in series [2] is 8.9 µM. For the same compound, the CC50 in series [3] is 82 µM.

As for `CCN(CC)C(=O)Oc1ccc(C(CC)(CC)c2ccc(NC(C)=O)c(C)c2)cc1C`, the “Ratio CC50/EC50” value in series [1] turned out to be 5. For the same compound, the EC50 in series [2] was determined as 10 µM. Also, the CC50 in series [3] was found to be 50 µM.
